Assay results: US20230085307A1, “PYRIDAZINONE COMPOUND AND HERBICIDE” (NISSAN CHEMICAL CORPORATION, priority 2019, published 2023)

Experiments:
[1] = system: false cleavers; assay: Test Example 5: herbicidal effect by foliage application, plastic box (Table 20, symbol Q); assay type: in vivo, false cleavers (Galium spurium); conditions: foliage application, three weeks after application
Method in brief: (§1)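 Sow seeds spot-wise in sterilized diluvial soil; cover with ~1.5 cm soil. Grow 14 days in greenhouse, 25° C. to 30° C. Spray foliage with emulsion diluted to predetermined amount. Rate effect after 3 weeks.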

[2] = system: blackgrass; assay: Test Example 5: herbicidal effect by foliage application, plastic box (Table 20, symbol J); assay type: in vivo, blackgrass (Alopecurus myosuroides); conditions: foliage application, three weeks after application
Method in brief: as §1

[3] = system: wild oat; assay: Test Example 5: herbicidal effect by foliage application, plastic box (Table 20, symbol I); assay type: in vivo, wild oat (Avena fatua); conditions: foliage application, three weeks after application
Method in brief: as §1

[4] = system: redroot pigweed; assay: Test Example 5: herbicidal effect by foliage application, plastic box (Table 20, symbol N); assay type: in vivo, redroot pigweed (Amaranthus retroflexus); conditions: foliage application, three weeks after application
Method in brief: as §1

[5] = system: windgrass; assay: Test Example 5: herbicidal effect by foliage application, plastic box (Table 20, symbol L); assay type: in vivo, windgrass (Apera spica-venti); conditions: foliage application, three weeks after application
Method in brief: as §1

[6] = system: Italian ryegrass; assay: Test Example 5: herbicidal effect by foliage application, plastic box (Table 20, symbol K); assay type: in vivo, Italian ryegrass (Lolium multiflorum); conditions: foliage application, three weeks after application
Method in brief: as §1

[7] = system: barnyard grass; assay: Test Example 3: herbicidal effect by foliage application, Wagner pot (Table 18, symbol H); assay type: in vivo, barnyard grass (Echinochloa crus-galli)
Method in brief: (§2)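 Plants were sown in alluvial soil held under 0.1–0.5 cm standing water and grown 14 days in a greenhouse at 25–30 °C. An emulsifiable formulation, water-diluted to the set dose, was then sprayed onto the foliage, and effects were scored three weeks later using previously defined criteria.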

[8] = system: green foxtail; assay: Test Example 5: herbicidal effect by foliage application, plastic box (Table 20, symbol G); assay type: in vivo, green foxtail (Setaria viridis); conditions: foliage application, three weeks after application
Method in brief: as §1

[9] = system: persian speedwell; assay: Test Example 5: herbicidal effect by foliage application, plastic box (Table 20, symbol R); assay type: in vivo, Persian speedwell (Veronica persica); conditions: foliage application, three weeks after application
Method in brief: as §1

[10] = system: rice flat sedge; assay: Test Example 3: herbicidal effect by foliage application, Wagner pot (Table 18, symbol E); assay type: in vivo, rice flat sedge (Cyperus iria)
Method in brief: as §2

[11] = system: velvetleaf; assay: Test Example 5: herbicidal effect by foliage application, plastic box (Table 20, symbol M); assay type: in vivo, velvetleaf (Abutilon theophrasti); conditions: foliage application, three weeks after application
Method in brief: as §1

[12] = system: chickweed; assay: Test Example 5: herbicidal effect by foliage application, plastic box (Table 20, symbol P); assay type: in vivo, common chickweed (Stellaria media); conditions: foliage application, three weeks after application
Method in brief: as §1

[13] = system: lambsquarters; assay: Test Example 5: herbicidal effect by foliage application, plastic box (Table 20, symbol O); assay type: in vivo, lambsquarters (Chenopodium album); conditions: foliage application, three weeks after application
Method in brief: as §1

[14] = system: Chinese sprangletop; assay: Test Example 3: herbicidal effect by foliage application, Wagner pot (Table 18, symbol D); assay type: in vivo, chinese sprangletop (Leptochloa chinensis)
Method in brief: as §2

[15] = system: barnyard grass; assay: Test Example 5: herbicidal effect by foliage application, plastic box (Table 20, symbol H); assay type: in vivo, barnyard grass (Echinochloa crus-galli); conditions: foliage application, three weeks after application
Method in brief: as §1

[16] = system: southern crabgrass; assay: Test Example 5: herbicidal effect by foliage application, plastic box (Table 20, symbol F); assay type: in vivo, southern crabgrass (Digitaria ciliaris); conditions: foliage application, three weeks after application
Method in brief: as §1

SMILES: CCCC(=O)Oc1c(C)nn(C)c(=O)c1-c1c(-c2cc3c(cc2Cl)OCCO3)sc2ccccc12 [1-096]
- Q: false cleavers, herbicidal effect ([1]; AAH 485 g/ha): 1 (Herbicidal rate of 5% or more and less than 20%)
- J: blackgrass, herbicidal effect ([2]; AAH 485 g/ha): 0 (Herbicidal rate of 5% or less (almost no effect))
- I: wild oat, herbicidal effect ([3]; AAH 485 g/ha): 0 (Herbicidal rate of 5% or less (almost no effect))
- N: redroot pigweed, herbicidal effect ([4]; AAH 485 g/ha): 4 (Herbicidal rate of 70% or more and less than 90%)
- L: windgrass, herbicidal effect ([5]; AAH 485 g/ha): 0 (Herbicidal rate of 5% or less (almost no effect))
- K: Italian ryegrass, herbicidal effect ([6]; AAH 485 g/ha): 0 (Herbicidal rate of 5% or less (almost no effect))
- herbicidal effect on H (barnyard grass), rating 0-5 ([7]; 485 g/ha): 5 (Herbicidal rate of 90% or more (almost completely withered))
- G: green foxtail, herbicidal effect ([8]; AAH 485 g/ha): 2 (Herbicidal rate of 20% or more and less than 40%)
- R: persian speedwell, herbicidal effect ([9]; AAH 485 g/ha): 5 (Herbicidal rate of 90% or more (almost completely withered))
- herbicidal effect on E (rice flat sedge), rating 0-5 ([10]; 485 g/ha): 0 (Herbicidal rate of 5% or less (almost no effect))
- M: velvetleaf, herbicidal effect ([11]; AAH 485 g/ha): 1 (Herbicidal rate of 5% or more and less than 20%)
- P: chickweed, herbicidal effect ([12]; AAH 485 g/ha): 3 (Herbicidal rate of 40% or more and less than 70%)
- O: lambsquarters, herbicidal effect ([13]; AAH 485 g/ha): 4 (Herbicidal rate of 70% or more and less than 90%)
- herbicidal effect on D (Chinese sprangletop), rating 0-5 ([14]; 485 g/ha): 2 (Herbicidal rate of 20% or more and less than 40%)
- H: barnyard grass, herbicidal effect ([15]; AAH 485 g/ha): 3 (Herbicidal rate of 40% or more and less than 70%)
- F: southern crabgrass, herbicidal effect ([16]; AAH 485 g/ha): 2 (Herbicidal rate of 20% or more and less than 40%)

SMILES: CCCC(=O)Oc1c(C)nn(C)c(=O)c1-c1c(-c2ccc(Oc3ccccc3)cc2)sc2ccccc12 [1-150]
- Q: false cleavers, herbicidal effect ([1]; AAH 320 g/ha): 5 (Herbicidal rate of 90% or more (almost completely withered))
- J: blackgrass, herbicidal effect ([2]; AAH 320 g/ha): 0 (Herbicidal rate of 5% or less (almost no effect))
- I: wild oat, herbicidal effect ([3]; AAH 320 g/ha): 0 (Herbicidal rate of 5% or less (almost no effect))
- N: redroot pigweed, herbicidal effect ([4]; AAH 320 g/ha): 4 (Herbicidal rate of 70% or more and less than 90%)
- L: windgrass, herbicidal effect ([5]; AAH 320 g/ha): 0 (Herbicidal rate of 5% or less (almost no effect))
- K: Italian ryegrass, herbicidal effect ([6]; AAH 320 g/ha): 0 (Herbicidal rate of 5% or less (almost no effect))
- herbicidal effect on H (barnyard grass), rating 0-5 ([7]; 320 g/ha): 2 (Herbicidal rate of 20% or more and less than 40%)
- G: green foxtail, herbicidal effect ([8]; AAH 320 g/ha): 0 (Herbicidal rate of 5% or less (almost no effect))
- R: persian speedwell, herbicidal effect ([9]; AAH 320 g/ha): 5 (Herbicidal rate of 90% or more (almost completely withered))
- herbicidal effect on E (rice flat sedge), rating 0-5 ([10]; 320 g/ha): 3 (Herbicidal rate of 40% or more and less than 70%)
- M: velvetleaf, herbicidal effect ([11]; AAH 320 g/ha): 3 (Herbicidal rate of 40% or more and less than 70%)
- P: chickweed, herbicidal effect ([12]; AAH 320 g/ha): 5 (Herbicidal rate of 90% or more (almost completely withered))
- O: lambsquarters, herbicidal effect ([13]; AAH 320 g/ha): 2 (Herbicidal rate of 20% or more and less than 40%)
- herbicidal effect on D (Chinese sprangletop), rating 0-5 ([14]; 320 g/ha): 3 (Herbicidal rate of 40% or more and less than 70%)
- H: barnyard grass, herbicidal effect ([15]; AAH 320 g/ha): 0 (Herbicidal rate of 5% or less (almost no effect))
- F: southern crabgrass, herbicidal effect ([16]; AAH 320 g/ha): 0 (Herbicidal rate of 5% or less (almost no effect))
